Read-outs that look alike come from different tables or passages of the source. Each block holds one compound with its values, some of them ahead of it.
Tests used:
PANC-1 = test: Inhibition of cells growth by colorimetric (SRB) assay, PANC-1; conditions: for GI50 / CC50: Homo sapiens, PANC-1, 48 h; for GI50: read-out: PANC-1 GI50, SRB assay, 48 hours exposure; for CC50: read-out: PANC-1 LC50, SRB assay, 48 hours exposure; for PANC-1 TGI: SRB assay, 48 hours exposure
How it was run: (§1)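 Human tumour cells in RPMI 1640 with 10% FBS were seeded at 5×10^3 cells/well, allowed to attach for 18 h, then exposed to samples at 10 to 10^−8 μg/ml for 48 h. Growth was measured by SRB staining after TCA fixation, with absorbance read at 490 nm in triplicate wells.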

HT-29 = test: Inhibition of cells growth by colorimetric (SRB) assay, HT-29; conditions: for GI50 / CC50: Homo sapiens, HT-29, 48 h
How it was run: as §1

LoVo = test: Inhibition of cells growth by colorimetric (SRB) assay, LoVo; conditions: for GI50 / CC50: Homo sapiens, LoVo, 48 h; for GI50: read-out: LOVO GI50, SRB assay, 48 hours exposure; for CC50: read-out: LOVO LC50, SRB assay, 48 hours exposure; for LOVO TGI: SRB assay, 48 hours exposure
How it was run: as §1

HeLa-APL = test: Inhibition of cells growth by colorimetric (SRB) assay, HeLa-APL; conditions: for GI50 / CC50: Homo sapiens, 48 h; for GI50: read-out: HELA-APL GI50, SRB assay, 48 hours exposure; for CC50: read-out: HELA-APL LC50, SRB assay, 48 hours exposure; for HELA-APL TGI: SRB assay, 48 hours exposure
From the text: (§2) The finality of these assays is to interrupt the growth of a “in vitro” tumor cell culture by means a continued exhibition of the cells to the sample to be testing.
(§3) This form of the assay employs 96 well cell culture microplates of 9 mm diameter (Faircloth, 1988; Mosmann, 1983). Most of the cell lines are obtained from American Type Culture Collection (ATCC) derived from different human cancer types.
(§4) Cells are maintained in RPMI 1640 10% FBS, supplemented with 0.1 g/l penicillin and 0.1 g/l streptomycin sulphate and then incubated at 37° C., 5% CO2 and 98% humidity. For the experiments, cells were harvested from subconfluent cultures using trypsin and resuspended in fresh medium before plating.
(§5) Cells are seeded in 96 well microtiter plates, at 5×10^3 cells per well in aliquots of 195 μl medium, and they are allowed to attach to the plate surface by growing in drug free medium for 18 hours. Afterward, samples are added in aliquots of 5 μl in a ranging from 10 to 10^−8 μg/ml, dissolved in DMSO/EtOH/PBS (0.5:0.5:99). After 48 hours exposure, the antitumor effect are measured by the SRB methodology: cells are fixed by adding 50 μl of cold 50% (wt/vol) trichloroacetic acid (TCA) and incubating for 60 minutes at 4° C. Plates are washed with deionized water and dried. One hundred μl of SRB solution (0.4% wt/vol in 1% acetic acid) is added to each microtiter well and incubated for 10 minutes at room temperature. Unbound SRB is removed by washing with 1% acetic acid. Plates are air dried and bound stain is solubilized with Tris buffer. Optical densities are read on a automated spectrophotometric plate reader at a single wavelength of 490 nm.
(§6) The values for mean +/−SD of data from triplicate wells are calculated. Some parameters for cellular responses can be calculated: GI=growth inhibition, TGI=total growth inhibition (cytostatic effect) and LC=cell killing (cytotoxic effect).

SK-MEL-28 = test: Inhibition of cells growth by colorimetric (SRB) assay, SK-MEL-28; conditions: for GI50 / CC50: Homo sapiens, SK-MEL-28, 48 h; for GI50: read-out: MEL-28 GI50, SRB assay, 48 hours exposure; for CC50: read-out: MEL-28 LC50, SRB assay, 48 hours exposure; for MEL-28 TGI: SRB assay, 48 hours exposure
How it was run: as §1

DU-145 = test: Inhibition of cells growth by colorimetric (SRB) assay, DU-145; conditions: for GI50 / CC50: Homo sapiens, DU-145, 48 h; for GI50: read-out: DU-145 GI50, SRB assay, 48 hours exposure; for CC50: read-out: DU-145 LC50, SRB assay, 48 hours exposure; for DU-145 TGI: SRB assay, 48 hours exposure
How it was run: as §1

HeLa = test: Inhibition of cells growth by colorimetric (SRB) assay, HeLa; conditions: for GI50: Homo sapiens, HeLa, 48 h, read-out: HELA GI50, SRB assay, 48 hours exposure; for HELA TGI: SRB assay, 48 hours exposure
From the text: as §2, §3, §4, §5, §6

LoVo-Dox = test: Inhibition of cells growth by colorimetric (SRB) assay, LoVo-Dox; conditions: for GI50 / CC50: Homo sapiens, 48 h; for GI50: read-out: LOVO-DOX GI50, SRB assay, 48 hours exposure; for CC50: read-out: LOVO-DOX LC50, SRB assay, 48 hours exposure; for LOVO-DOX TGI: SRB assay, 48 hours exposure
How it was run: as §1

IGROV-ET = test: Inhibition of cells growth by colorimetric (SRB) assay, IGROV-ET; conditions: for GI50 / CC50: Homo sapiens, 48 h; for GI50: read-out: IGROV-ET GI50, SRB assay, 48 hours exposure; for CC50: read-out: IGROV-ET LC50, SRB assay, 48 hours exposure; for IGROV-ET TGI: SRB assay, 48 hours exposure
How it was run: as §1

IGROV-1 = test: Inhibition of cells growth by colorimetric (SRB) assay, IGROV-1; conditions: for GI50 / CC50: Homo sapiens, IGROV-1, 48 h; for GI50: read-out: IGROV GI50, SRB assay, 48 hours exposure; for CC50: read-out: IGROV LC50, SRB assay, 48 hours exposure; for IGROV TGI: SRB assay, 48 hours exposure
How it was run: as §1

K-562 = test: Inhibition of cells growth by colorimetric (SRB) assay, K-562; conditions: for GI50 / CC50: Homo sapiens, K562, 48 h; for GI50: read-out: K-562 GI50, SRB assay, 48 hours exposure; for CC50: read-out: K-562 LC50, SRB assay, 48 hours exposure; for K-562 TGI: SRB assay, 48 hours exposure
How it was run: as §1

SK-BR-3 = test: Inhibition of cells growth by colorimetric (SRB) assay, SK-BR-3; conditions: for GI50 / CC50: Homo sapiens, SK-BR-3, 48 h; for GI50: read-out: SK-BR-3 GI50, SRB assay, 48 hours exposure; for CC50: read-out: SK-BR-3 LC50, SRB assay, 48 hours exposure; for SK-BR-3 TGI: SRB assay, 48 hours exposure
How it was run: as §1

A-549 = test: Inhibition of cells growth by colorimetric (SRB) assay, A-549; conditions: for GI50 / CC50: Homo sapiens, A549, 48 h
How it was run: as §1

LNCaP = test: Inhibition of cells growth by colorimetric (SRB) assay, LNCaP; conditions: for GI50 / CC50: Homo sapiens, LNCaP, 48 h; for GI50: read-out: LN-caP GI50, SRB assay, 48 hours exposure; for CC50: read-out: LN-caP LC50, SRB assay, 48 hours exposure; for LN-caP TGI: SRB assay, 48 hours exposure
How it was run: as §1

[1] = read-out: HT-29 GI50, SRB assay, 48 hours exposure
[2] = read-out: HT-29 LC50, SRB assay, 48 hours exposure
[3] = read-out: A-549 GI50, SRB assay, 48 hours exposure
[4] = read-out: A-549 LC50, SRB assay, 48 hours exposure

GI50 (PANC-1): 0.588 µM
GI50 (HT-29; [1]): 1.14 µM
GI50 (LoVo): 0.539 µM
GI50 (HeLa-APL): 0.0103 µM
GI50 (SK-MEL-28): 1.08 µM
GI50 (DU-145): 0.365 µM
GI50 (HeLa): 0.01 µM
GI50 (LoVo-Dox): 1.15 µM
GI50 (K-562): 2.51 µM
GI50 (SK-BR-3): 0.641 µM
GI50 (A-549; [3]): 1.29 µM
GI50 (LNCaP): 0.31 µM
Structure (SMILES): CSc1nccc(-c2c3cccnc3n3c(N)nccc23)n1.Cl [Compound 68]
CC50 (PANC-1): 29 µM
PANC-1 TGI (PANC-1): 1.15E−05
CC50 (HT-29; [2]): 29 µM
HT-29 TGI (HT-29; SRB assay, 48 hours exposure): 6.93E−06
CC50 (LoVo): 2.59 µM
LOVO TGI (LoVo): 1.18E−06
CC50 (HeLa-APL): 0.655 µM
HELA-APL TGI (HeLa-APL): 5.68E−08
CC50 (SK-MEL-28): 14.4 µM
MEL-28 TGI (SK-MEL-28): 4.49E−06
CC50 (DU-145): 2.9 µM
DU-145 TGI (DU-145): 1.03E−06
HELA TGI (HeLa): 3.19E−08
CC50 (LoVo-Dox): 29 µM
LOVO-DOX TGI (LoVo-Dox): 2.43E−06
GI50 (IGROV-ET): 2.82 µM
CC50 (IGROV-ET): 29 µM
IGROV-ET TGI (IGROV-ET): 1.44E−05
GI50 (IGROV-1): 1.72 µM
CC50 (IGROV-1): 29 µM
IGROV TGI (IGROV-1): 1.27E−05
CC50 (K-562): 29 µM
K-562 TGI (K-562): 1.84E−05
CC50 (SK-BR-3): 16.1 µM
SK-BR-3 TGI (SK-BR-3): 3.42E−06
CC50 (A-549; [4]): 29 µM
A-549 TGI (A-549; SRB assay, 48 hours exposure): 5.10E−06
CC50 (LNCaP): 4.41 µM
LN-caP TGI (LNCaP): 1.05E−06

GI50 (PANC-1): 4.99 µM
GI50 (HT-29; read-out: GI50 HT-29, SRB assay, 48 hours exposure): 14.3 µM
GI50 (HT-29; [1]): 0.887 µM
GI50 (LoVo): 1.22 µM
GI50 (HeLa-APL): 0.00594 µM
GI50 (SK-MEL-28): 2.19 µM
GI50 (DU-145): 0.985 µM
GI50 (HeLa): 0.00716 µM
GI50 (LoVo-Dox): 2.04 µM
GI50 (K-562): 12.8 µM
GI50 (SK-BR-3): 1.23 µM
GI50 (A-549; [3]): 0.517 µM
GI50 (A-549; read-out: GI50 A-549, SRB assay, 48 hours exposure): 5.71 µM
GI50 (LNCaP): 1.08 µM
Structure (SMILES): CSc1nccc(-c2c3cccnc3n3c(NC(C)=O)nccc23)n1 [Compound 69]
CC50 (PANC-1): 28.5 µM
PANC-1 TGI (PANC-1): 1.91E−05
CC50 (HT-29; [2]): 28.5 µM
CC50 (HT-29; read-out: LC50 HT-29, SRB assay, 48 hours exposure): 28.6 µM
HT-29 TGI (HT-29; SRB assay, 48 hours exposure): 6.51E−06
TGI HT-29 (HT-29; SRB assay, 48 hours exposure): 2.86E−05
CC50 (LoVo): 28.5 µM
LOVO TGI (LoVo): 7.28E−06
CC50 (HeLa-APL): 0.38 µM
HELA-APL TGI (HeLa-APL): 2.45E−08
CC50 (SK-MEL-28): 16.4 µM
MEL-28 TGI (SK-MEL-28): 6.51E−06
CC50 (DU-145): 23.7 µM
DU-145 TGI (DU-145): 4.59E−06
HELA TGI (HeLa): 3.60E−08
CC50 (LoVo-Dox): 28.5 µM
LOVO-DOX TGI (LoVo-Dox): 9.79E−06
GI50 (IGROV-ET): 7.31 µM
CC50 (IGROV-ET): 28.5 µM
IGROV-ET TGI (IGROV-ET): 2.18E−05
GI50 (IGROV-1): 2.13 µM
CC50 (IGROV-1): 28.5 µM
IGROV TGI (IGROV-1): 8.53E−06
CC50 (K-562): 28.5 µM
K-562 TGI (K-562): 2.85E−05
CC50 (SK-BR-3): 24.8 µM
SK-BR-3 TGI (SK-BR-3): 6.25E−06
CC50 (A-549; [4]): 2.75 µM
CC50 (A-549; read-out: LC50 A-549, SRB assay, 48 hours exposure): 28.6 µM
A-549 TGI (A-549; SRB assay, 48 hours exposure): 1.19E−06
TGI A-549 (A-549; SRB assay, 48 hours exposure): 2.29E−05
CC50 (LNCaP): 28.5 µM
LN-caP TGI (LNCaP): 4.77E−06

From US7772241B2, “Variolin derivatives and their use as antitumor agents” (Pharma Mar S.A., priority 2001, dated 2010)
